# pIC50: −log10 of the molar value. Like-named read-outs stand apart in the source and are kept apart here. No end group written: not given here.
# Key:
# [1] = target: HLA-A*2902 (Homo sapiens, UniProt P04439, A270S/D101N/D185E/E176V/E277Q/E87Q/F33T/G231S/H175R/I121M/I218V/I322F/K168Q/L300P/L318F/M331R/P208A/P217A/Q86L/T323A/T345S/V100A/V358M); experiment: MHC molecular binding / Capture assay, IC50: A*2902
# [2] = target: HLA-A*3002 (Homo sapiens, UniProt P04439, D101N/D140H/D185E/E176R/F33S/G80R/H175R/K168Q/Q94H/R138E/R41S/V100E); experiment: biochemical; type: binding
# [3] = target: HLA-A*0202 (Homo sapiens, UniProt P04439, D140Y/D185E/D98H/E176V/E277Q/G131W/G231S/I119L/I121R/I166T/I218V/L180W/L300P/L318F/N151K/N90K/P208A/P217A/Q67R/Q86G/Q94H/R138H/R169H/T345S); experiment: biochemical; type: binding
# [4] = target: HLA-A*0206 (Homo sapiens, UniProt P04439, D140Y/D185E/D98H/E176V/E277Q/F33Y/G131W/G231S/I119V/I121R/I166T/I218V/L300P/L318F/N151K/N90K/P208A/P217A/Q86G/Q94H/R138H/R169H/T345S); experiment: biochemical; type: binding
# [5] = target: HLA-A*6802 (Homo sapiens, UniProt P04439, A269V/D140Y/D185E/E176V/E277Q/E87N/F33Y/G231S/I121R/I166T/I218V/L180W/L300P/L318F/N151K/P208A/P217A/Q86R/R138H/R169H/S129P/T345S/V36M); experiment: biochemical; type: binding
# [6] = target: HLA-A*0203 (Homo sapiens, UniProt P04439, A173T/D140Y/D185E/D98H/E277Q/G131W/G231S/I119V/I121R/I166T/I218V/L180W/L300P/L318F/N151K/N90K/P208A/P217A/Q86G/Q94H/R138H/R169H/T345S); experiment: biochemical; type: binding
# [7] = Binding affinity to A*2902 (expressed as an IC50)
# [8] = Binding affinity to A*3002 (expressed as an IC50)
# [9] = A*0202 binding affinity (expressed as an IC50)
# [10] = A*0206 binding affinity (expressed as an IC50)
# [11] = A*6802 binding affinity (expressed as an IC50)
# [12] = A*0203 binding affinity (expressed as an IC50)
compound,measurement,setting,value
CC(C)C[C@H](NC(=O)[C@H](C)NC(=O)[C@H](CO)NC(=O)[C@H](C)NC(=O)[C@@H](NC(=O)[C@H](CC(=O)O)NC(=O)[C@H](CC(C)C)NC(=O)[C@H](CC(C)C)NC(=O)[C@@H](N)CC(=O)O)[C@@H](C)O)C(=O)N[C@@H](Cc1ccc(O)cc1)C(=O)O,pIC50,[1]; [7],7.13
CC[C@H](C)[C@H](NC(=O)[C@H](CCC(=O)O)NC(=O)[C@H](CC(C)C)NC(=O)[C@H](C)NC(=O)[C@H](CO)NC(=O)[C@H](CO)NC(=O)[C@H](CC(C)C)NC(=O)[C@@H](N)CCC(=O)O)C(=O)N1CCC[C@H]1C(=O)N[C@@H](Cc1ccc(O)cc1)C(=O)O,pIC50,[1]; [7],5.22
same,pIC50,[2]; [8],5.35
CC[C@H](C)[C@H](NC(=O)[C@H](Cc1ccc(O)cc1)NC(=O)[C@H](Cc1ccccc1)NC(=O)[C@H](CCCNC(=N)N)NC(=O)[C@H](CC(N)=O)NC(=O)[C@H](CCSC)NC(=O)[C@@H](N)Cc1ccccc1)C(=O)N[C@H](C(=O)N[C@H](C(=O)O)[C@@H](C)O)[C@@H](C)O,pIC50,[3]; [9],7.74
same,pIC50,[4]; [10],6.00
same,pIC50,[5]; [11],5.18
CC(C)C[C@H](NC(=O)[C@H](Cc1c[nH]cn1)NC(=O)[C@H](CC(C)C)NC(=O)[C@H](CCCCN)NC(=O)[C@H](CCCNC(=N)N)NC(=O)CNC(=O)[C@H](Cc1ccc(O)cc1)NC(=O)[C@@H](NC(=O)[C@@H](N)CCCCN)[C@@H](C)O)C(=O)N[C@@H](Cc1ccc(O)cc1)C(=O)O,pIC50,[1]; [7],7.57
same,pIC50,[2]; [8],8.82
CC(C)C[C@H](NC(=O)[C@H](CO)NC(=O)[C@@H](N)CC(C)C)C(=O)N[C@@H](CC(=O)O)C(=O)N[C@H](C(=O)N[C@@H](CO)C(=O)N[C@@H](C)C(=O)N[C@@H](C)C(=O)N[C@@H](Cc1ccccc1)C(=O)N[C@@H](Cc1ccc(O)cc1)C(=O)O)C(C)C,pIC50,[1]; [7],7.92
CC[C@H](C)[C@H](NC(=O)[C@@H](N)C(C)C)C(=O)N[C@@H](CS)C(=O)N[C@@H](CO)C(=O)N[C@@H](Cc1ccccc1)C(=O)N[C@@H](CC(C)C)C(=O)N[C@H](C(=O)N[C@@H](Cc1ccccc1)C(=O)N[C@@H](CC(C)C)C(=O)N[C@H](C(=O)O)C(C)C)C(C)C,pIC50,[3]; [9],6.38
same,pIC50,[6]; [12],5.54
same,pIC50,[4]; [10],6.71
same,pIC50,[5]; [11],5.71
AMAKAAAAV,pIC50,[6]; [12],8.17
same,pIC50,[4]; [10],5.83
same,pIC50,[5]; [11],6.75
AYGPGPGKI,pIC50,[1]; A*2902 binding affinity (IC50),< 3.81
same,pIC50,[2]; A*3002 binding affinity (IC50),5.27
CYSLYGTTF,pIC50,[2],5.11
ELEASISGKY,pIC50,[1]; [7],4.66
FGVRPQVPL,pIC50,[5],6.49
FLKEKGGV,pIC50,[3],6.19
same,pIC50,[4],< 4.84
same,pIC50,[5],< 4.71
FPFKYAAAV,pIC50,[5]; [11],7.04
FVSSIFISFY,pIC50,[1]; [7],7.66
same,pIC50,[2]; [8],7.08
IISAVVAIL,pIC50,[3]; [9],8.10
same,pIC50,[6]; [12],7.35
same,pIC50,[4]; [10],5.84
same,pIC50,[5]; [11],6.83
ITEYRHYNY,pIC50,[2],6.38
ITYSAHDTTV,pIC50,[5]; [11],7.09
KIFASVAIL,pIC50,[3]; [9],7.80
same,pIC50,[6]; [12],7.68
same,pIC50,[5]; [11],6.44
KLTPRCVTL,pIC50,[3],6.82
same,pIC50,[6],7.70
same,pIC50,[4],5.81
same,pIC50,[5],< 4.20
KMTFLCVQM,pIC50,[3]; [9],7.66
same,pIC50,[6]; [12],6.28
same,pIC50,[4]; [10],7.00
same,pIC50,[5]; [11],5.06
KTYGGPGPGY,pIC50,[1]; [7],6.64
same,pIC50,[2]; [8],8.77

# Source: patent US20060079453A1, “Hla binding peptides and their uses” (priority 2002, published 2006)
